From patent publication US5770563A, “Heparin- and sulfatide binding peptides from the type I repeats of human thrombospondin and conjugates thereof” (The United States of America as represented by the …, priority 1995, dated 1998) come the findings set out here.

pIC50: −log10 of the molar value. Like-named read-outs stand apart in the source and are kept apart here. Square brackets hold non-standard residues; d marks the D form. Peptide text beside a SMILES is read from it.

What is called pIC50 is the negative decadic logarithm of the IC50, by convention in mol/L.

Assay [1] concerns the target basic fibroblast growth factor (FGF-2) binding to heparin. Description: Inhibition of 125I-bFGF binding to heparin-BSA conjugate. The procedure: Binding of ^125 I-bFGF to heparin was determined using an immobilized heparin-BSA conjugate as previously described (Guo, et al. (1992) Proc. Nat'l Acad. Sci. 89:3040-3044). ^125 I-bFGF, prepared as described by Neufeld, et al, (1985), J. Biol. Chem. 260:13860-13868, was added described above, and incubated for 2 hours at 25° C. Bound radioactivity was determined after washing and cutting the wells from the plate. FIGS. 40A, B and C show the inhibition of ^125 I-bFGF binding to heparin by a number of TSP peptide analogs.

The test system of assay [2] is laminin binding to heparin. Description: Inhibition of 125I-laminin binding to heparin-BSA. More on the design: species or system mouse. To be noted: for pIC50: Table 2, free peptide. The procedure:
(§1) The peptides were tested as inhibitors of laminin, thrombospondin or apolipoprotein E binding to a heparin-bovine serum albumen conjugate or to a sulfatide in a solid phase assay essentially following the procedure described in Zabrenetzky et al., Cancer Res., Vol. 50, pages 5937-5942 (1990). Sulfatide (0.2 μg/well for thrombospondin binding, 0.6 μg/well for laminin binding) was immobilized in a mixture of 50 ng of phosphatidyl choline, and 30 ng of cholesterol on polyvinyl chloride microtiter plates. Heparin-BSA (0.2 μg/well) was absorbed onto polyvinyl chloride microtiter plate wells by incubation of 50 μl of Dulbecco's PBS for 2 h at 37°. The wells were emptied and filled with 50 mM tris, pH 7.8 containing 150 mM NaCl, 1 mM CaCl2, 0.025% NaN3, and 1% BSA. After 30 minutes, the wells were emptied and 30 μl of various concentrations of potential inhibitory peptides diluted in the same buffer or buffer alone and 30 μl of ^125 I-labeled laminin, thrombospondin or apolipoprotein E (0.2 μg/ml) were added to each well. After 3 hours at 4°, the wells were washed 6 times with 0.15M NaCl, cut from the plate and the bound radioactivity counted. FIGS. 1A-B and 2A-B show the level of thrombospondin binding to sulfatide and heparin-BSA, respectively, in the presence of increasing concetrations of the peptides listed. FIGS. 3 and 4A-B show the level of laminin binding to sulfatide and heparin-BSA, respectively, in the presence of increasing concentrations of the listed peptides.

The test system of assay [3] is thrombospondin binding to heparin. Description: Inhibition of 125I-thrombospondin binding to immobilized heparin-BSA. On the set-up: species or system human. To be noted: for inhibition of thrombospondin binding to heparin, in words: free peptide. The protocol:
as §1
Microtiter plate wells were coated with heparin-BSA. Heparin-BSA (0.2 μg/well) was adsorbed by incubation in 50 μl of Dulbecco's PBS for 2 h at 370. The wells were emptied, filled with tris-BSA, and incubated for 30 to 60 minutes. The buffer was removed, and labelled thrombospondin was added and incubated in the wells for 3 h at 40. The wells were emptied and washed 4 times with saline. The bottoms of the wells were cut from the plate and counted to quantify thrombospondin binding. Inhibition of thrombospondin binding was determined using peptides diluted in 30 μl of 50 mM tris buffer, pH 7.8, containing 110 mM NaCl, 1 mM CaCl2, 0.025% NaN3, and 1% BSA or buffer alone and 30 μl of ^125 I-labeled TSP (0.2 μg/ml).

For assay [4], the target named is apolipoprotein E binding to heparin. Description: Inhibition of 125I-apolipoprotein E binding to heparin-BSA. The conditions noted are these: Table 2, free peptide; read-out: IC50 Apo E Binding to Heparin. The procedure: as §1
Assay [5] concerns the target laminin binding to sulfatide. Description: Inhibition of 125I-laminin binding to sulfatide. On the set-up: species or system mouse. To be noted: Table 2, free peptide. The protocol: as §1
In assay [6] the target is thrombospondin binding to sulfatide. Nature of the assay: Inhibition of 125I-thrombospondin binding to sulfatide. On the set-up: species or system human. The conditions noted are these: Table 1, free peptide. The protocol:
as §1

Setting [7] is: L-forward peptides, read-out: IC50 Inhibitory Activity.
[8] abbreviates: retro-inverso peptides, read-out: IC50 for Inhibition of Binding.
Where [9] appears, read: retro-inverso peptides, free, read-out: IC50 Inhibitory Activity, Free Peptide.
Where [10] appears, read: Table 1, free peptide, read-out: IC50 Heparin Binding, inhibition of 125I-thrombospondin binding.

`NCC(=O)NCC(=O)N[C@@H](Cc1c[nH]c2ccccc12)C(=O)N[C@@H](CO)C(=O)N[C@@H](Cc1c[nH]cn1)C(=O)N[C@@H](Cc1c[nH]c2ccccc12)C(=O)N[C@@H](CO)C(=O)N1CCC[C@H]1C(=O)N[C@@H](Cc1c[nH]c2ccccc12)C(=O)N[C@@H](CO)C(=O)N[C@@H](CO)C(=O)O` [Peptide 256, GGWSHWSPWSS] (H-GGWSHWSPWSS-OH): the pIC50 in assay [1] (setting [7]) is less than 4.40. For the same compound, in assay [2] (free peptide), the “inhibition of laminin binding, in words” value is listed as “increased activity”. For the same compound, in assay [3], the “inhibition of thrombospondin binding to heparin, in words” value is reported as “decreased activity”.
As for `CC(=O)N[C@@H](CCCCN)C(=O)N[C@@H](CCCNC(=N)N)C(=O)N[C@@H](C)C(=O)N[C@@H](CCCCN)C(=O)N[C@@H](CCC(N)=O)C(=O)N[C@@H](C)C(=O)NCC(=O)NCC(=O)N[C@@H](Cc1c[nH]c2ccccc12)C(=O)N[C@@H](CO)C(=O)N[C@@H](Cc1c[nH]cn1)C(=O)N[C@@H](Cc1c[nH]c2ccccc12)C(=O)N[C@@H](C)C(=O)N[C@@H](C)C(=O)N[C@@H](CS)C(N)=O` [acKRAKQAGGWSHWAACam] (Ac-KRAKQAGGWSHWAAC-NH2), the negative logarithm of the IC50 (pIC50) in assay [1] (setting [7]) was 6.39; in assay [3] (L-forward peptides, free, read-out: IC50 Inhibitory Activity, Free Peptide), 7.35.
For `CC(=O)N[C@H](CS)C(=O)N[C@H](CO)C(=O)N[C@H](CO)C(=O)N[C@H](Cc1c[nH]c2ccccc12)C(=O)N1CCC[C@@H]1C(=O)N[C@H](CO)C(=O)N[C@H](Cc1c[nH]c2ccccc12)C(=O)N[C@H](Cc1c[nH]cn1)C(=O)N[C@H](CO)C(=O)N[C@H](Cc1c[nH]c2ccccc12)C(=O)NCC(=O)NCC(=O)N[C@H](C)C(=O)N[C@H](C)C(=O)N[C@H](CCCCN)C(=O)N[C@H](C)C(=O)N[C@H](CCCNC(=N)N)C(=O)N[C@H](CCCCN)C(N)=O` [Peptide 473, ri-amKRAKAAGGWSHWSPWSSCac] (Ac-[dC][dS][dS][dW][dP][dS][dW][dH][dS][dW]GG[dA][dA][dK][dA][dR][dK]-NH2), the pIC50 in assay [1] (setting [8]) was 5.72; in assay [3] (setting [9]), 6.82.
On to `CC[C@H](C)[C@H](NC(=O)[C@H](CC(=O)O)NC(=O)[C@H](Cc1c[nH]c2ccccc12)NC(=O)[C@@H]1CCCN1C(=O)[C@H](CO)NC(=O)[C@H](Cc1c[nH]c2ccccc12)NC(=O)[C@@H]1CCCN1C(=O)CN)C(=O)N[C@@H](CS)C(=O)N[C@@H](CO)C(=O)N[C@H](C(=O)N[C@H](C(=O)O)[C@@H](C)O)C(C)C` [Peptide 186, GPWSPWDICSVT] (H-GPWSPWDICSVT-OH), for which the negative-log IC50 (pIC50) in assay [4] is 4.28; in assay [2], 4.82; in assay [5], 4.46; in assay [6], 4.57; in assay [3] (setting [10]), 5.07.
Take `N[C@@H](Cc1c[nH]c2ccccc12)C(=O)N[C@@H](CO)C(=O)N1CCC[C@H]1C(=O)N[C@@H](Cc1c[nH]c2ccccc12)C(=O)N[C@@H](CO)C(=O)N[C@@H](CO)C(=O)N[C@@H](CS)C(=O)N[C@@H](CO)C(=O)O` [Peptide 240, WSPWSSCS] (H-WSPWSSCS-OH): the negative logarithm of the IC50 (pIC50) in assay [4] was 3.82; in assay [2], 4.00; in assay [5], 4.00; in assay [6], 4.00; in assay [3] (setting [10]), 4.18.
Consider `N[C@@H](CO)C(=O)N[C@@H](Cc1c[nH]cn1)C(=O)N[C@@H](Cc1c[nH]c2ccccc12)C(=O)N[C@@H](CO)C(=O)N1CCC[C@H]1C(=O)N[C@@H](Cc1c[nH]c2ccccc12)C(=O)N[C@@H](CO)C(=O)N[C@@H](CO)C(=O)O` [Peptide 239, SHWSPWSS] (H-SHWSPWSS-OH), for which the negative-log IC50 (pIC50) in assay [4] was 3.60; in assay [2] it was 4.96; in assay [5] it was 4.92; in assay [6], 5.00; in assay [3] (setting [10]), 5.28. For the same compound, in assay [3], the “inhibition of thrombospondin binding to heparin, in words” value was “more active than the intact dodecapeptide”.
Turning to `C[C@H](NC(=O)[C@H](Cc1c[nH]cn1)NC(=O)[C@@H](N)CO)C(=O)N[C@@H](CO)C(=O)N1CCC[C@H]1C(=O)N[C@@H](C)C(=O)N[C@@H](CO)C(=O)N[C@@H](CO)C(=O)O` [Peptide 244, SHASPASS] (H-SHASPASS-OH), the pIC50 in assay [4], in assay [2], in assay [6] and in assay [3] (setting [10]) was less than 3.70 each time. Also, in assay [3] (Trp replaced by Ala), the “fold less active than the natural sequence SHWSPWSS” value was “more than 100 fold”.
In the case of `CC(=O)N[C@H](CS)C(=O)N[C@H](CO)C(=O)N[C@H](CO)C(=O)N[C@H](C)C(=O)N1CCC[C@@H]1C(=O)N[C@H](CO)C(=O)N[C@H](C)C(=O)N[C@H](Cc1c[nH]cn1)C(=O)N[C@H](CO)C(=O)N[C@H](C)C(=O)NCC(=O)NCC(=O)N[C@H](CC(=O)O)C(=O)N[C@H](CCC(N)=O)C(=O)N[C@H](CCCCN)C(=O)N[C@H](Cc1ccccc1)C(=O)N[C@H](CCCNC(=N)N)C(=O)N[C@H](CCCCN)C(N)=O` [Peptide 475, ri-amKRFKQDGGASHASPASSCac] (Ac-[dC][dS][dS][dA][dP][dS][dA][dH][dS][dA]GG[dD][dQ][dK][dF][dR][dK]-NH2), the negative-log IC50 (pIC50) in assay [1] (setting [8]) was less than 4.70; in assay [3] (setting [9]) it was 5.00.
On to `CC(=O)N[C@H](CS)C(=O)N[C@H](CO)C(=O)N[C@H](CO)C(=O)N[C@H](Cc1c[nH]c2ccccc12)C(=O)N1CCC[C@@H]1C(=O)N[C@H](CO)C(=O)N[C@H](Cc1c[nH]c2ccccc12)C(=O)N[C@H](Cc1c[nH]cn1)C(=O)N[C@H](CO)C(=O)N[C@H](Cc1c[nH]c2ccccc12)C(=O)NCC(=O)NCC(=O)N[C@H](C)C(=O)N[C@H](CCC(N)=O)C(=O)N[C@H](CCCCN)C(=O)N[C@H](C)C(=O)N[C@H](CCCNC(=N)N)C(=O)N[C@H](CCCCN)C(N)=O` [Peptide 476, ri-amKRAKQAGGWSHWSPWSSCac] (Ac-[dC][dS][dS][dW][dP][dS][dW][dH][dS][dW]GG[dA][dQ][dK][dA][dR][dK]-NH2), for which the pIC50 was 6.66 in assay [1] (setting [8]) and 7.52 in assay [3] (setting [9]).
As to `CC(C)[C@H](NC(=O)[C@H](CO)NC(=O)[C@H](CS)NC(=O)[C@H](CO)NC(=O)[C@H](CO)NC(=O)[C@H](Cc1c[nH]c2ccccc12)NC(=O)[C@@H]1CCCN1C(=O)[C@H](CO)NC(=O)[C@@H](N)Cc1c[nH]c2ccccc12)C(=O)N[C@H](C(=O)O)[C@@H](C)O` [Peptide 241, WSPWSSCSVT] (H-WSPWSSCSVT-OH), the pIC50 was 3.74 in assay [4]; 4.47 in assay [2]; 4.30 in assay [5]; 4.47 in assay [6]; 4.46 in assay [3] (setting [10]).
`CC(=O)N[C@H](CS)C(=O)N[C@H](CO)C(=O)N[C@H](CO)C(=O)N[C@H](Cc1c[nH]c2ccccc12)C(=O)N1CCC[C@@H]1C(=O)N[C@H](CO)C(=O)N[C@H](Cc1c[nH]c2ccccc12)C(=O)N[C@H](Cc1c[nH]cn1)C(=O)N[C@H](CO)C(=O)N[C@H](Cc1c[nH]c2ccccc12)C(=O)NCC(=O)NCC(=O)N[C@H](CC(=O)O)C(=O)N[C@H](CCC(N)=O)C(=O)N[C@H](CCCCN)C(=O)N[C@H](C)C(=O)N[C@H](CCCNC(=N)N)C(=O)N[C@H](CCCCN)C(N)=O` [Peptide 474, ri-amKRAKQDGGWSHWSPWSSCac] (Ac-[dC][dS][dS][dW][dP][dS][dW][dH][dS][dW]GG[dD][dQ][dK][dA][dR][dK]-NH2): the values for the negative logarithm of the IC50 (pIC50) in assay [1] (setting [8]) and in assay [3] (setting [9]) were 6.02 and 7.00, respectively.
